Assay results reported in patent US11360080B2, “AhR-ROR-γt complex as a biomarker and therapeutic target for autoimmune disease and IL-17A-associated disease” (NATIONAL HEALTH RESEARCH INSTITUTES, priority 2018, dated 2022).
Counter-ions that a name gives are not always drawn.

Key:
CIA in wild-type mice = test: Collagen-induced arthritis (CIA) induction in wild-type mice; type: in vivo, mouse
Description: (A to C) Effect of the GLK inhibitor C1 (verteporfin) administration (0.556 nmole/g every 3 days for 30 days) on serum IL-17A and autoantibodies in Lck-GLK Tg mice. (B) ELISA of indicated serum cytokines in Lck-GLK Tg mice treated with C1 (verteporfin) or PBS. (C) ELISA of serum autoantibodies in Lck-GLK Tg mice treated with C1 (verteporfin) or PBS. Means±SEM are shown. (D) Experimental autoimmune encephalomyelitis (EAE) induction in wild-type mice treated with PBS, or the GLK inhibitor C1 (verteporfin) and C2. Clinical scores are presented on a scale of 1 to 5 (left panel). ELISA of IL-17A in the sera from MOG-immunized mice at day 16 (right panel). (E) Collagen-induced arthritis (CIA) induction in wild-type mice treated with the GLK inhibitor C1 (verteporfin) or PBS. Clinical scores are presented on a scale of 1 to 16 (left panel). ELISA of IL-17A in the sera from collagen-immunized mice at day 28. Means±SEM are shown. *, P value<0.05; **, P value<0.01; ***, P value<0.001 (two-tailed Student's […]). C1 denotes verteporfin; C2 denotes alexidine dihydrochloride.
Moreover, overproduction of autoantibodies in Lck-GLK Tg mice were also abolished by C1 (verteporfin) treatment (FIG. 10C). […] To further verify that the GLK inhibitors also works in IL-17A-mediated animal models, we challenged wild-type mice with C1 (verteporfin) or C2 (alexidine dihydrochloride) during EAE and CIA induction.

KHS (MAP4K5) = biological target: T1, KHS (MAP4K5) (Homo sapiens, UniProt Q9Y4K4); test: In vitro kinase assay, recombinant kinase domain, MBP as substrate; type: biochemical
T1 construct: Recombinant proteins of kinase domains of various MAP4Ks were used
Method: (§1) GLK kinase activity was determined by measuring the rate of ADP production in the in vitro kinase reaction using ADP-GLO™ Kinase Assay kit. For the kinase reaction, recombinant proteins of the GLK kinase-domain (1 μg) were incubated with recombinant proteins of kinase-dead PKCθ (K409W; 0.15 μg) plus ATP (0.1 mM) or myelin basic protein (MBP) plus ATP (0.1 mM) in kinase buffer (40 mM Tris-HCl, pH7.5.20 mM MgCl2, 0.1 mg/ml BSA, 10 mM DTT and 0.1 mM Na3VO4) for 30 min at room temperature. We studied whether GLK inhibitors also suppress cancer cell migration. […] Moreover, both C1 (verteporfin) and C2 (alexidine dihydrochloride) treatments suppressed tumor growth in the xenograft mouse model using TC-1 lung cancer cells (FIG. 15). To study whether GLK deficiency results in a reduction of lung cancer metastasis, we used a metastatic Lewis lung carcinoma (LLC) mouse model by tail vein injection of luciferase-expressing LLC (LLC/luc) cells. We identified two GLK inhibitors (verteporfin and alexidine dihydrochloride)) using cell-based assays and in vitro kinase assays. […] The dimerization of Flag-tagged GLK protein and GFP-GLK fusion protein was indeed blocked by the C1 (verteporfin) treatment (FIG. 16C). We treated the LLC/luc cells-containing mice with the GLK inhibitor C1 (verteporfin) or C2 (alexidine dihydrochloride) by intravenous injection every 3 days for 30 days (FIG. 16D). The luciferase activity of LLC/luc cells in the mice was detected by In Vivo Imaging System. The excised lungs were weighed and subjected to H&E staining. The luciferase activity of LLC/luc cells in the lung of injected mice was reduced by the treatment of C1 (verteporfin) or C2 (alexidine dihydrochloride) (FIGS. 16E-F). […] Moreover, the interaction between GLK and IQGAP1 in the lung tissues were inhibited by the treatment of C1 (verteporfin) or C2 (alexidine dihydrochloride) (FIG. 16H, upper panel), and IQGAP1 phosphorylation was in the lung tissues were inhibited (FIG. 16H, lower panel). […] Inhibition of kinase activity of GLK (MAP4K3) or other MAP4Ks was determined by in vitro kinase assays using myelin basic protein (MBP) as a substrate. Recombinant proteins of kinase domains of various MAP4Ks were used. C1, verteporfin: C2, alexidine dihydrochloride.

HPK1 (MAP4K1) = biological target: T2, HPK1 (MAP4K1) (Homo sapiens, UniProt Q92918); test: as above; type: biochemical
T2 construct: Recombinant proteins of kinase domains of various MAP4Ks were used
Method: as §1

[1] = system: splenic T cells (Treg differentiation); test: In vitro Treg differentiation, flow cytometry of Foxp3-producing CD4+ T cells; type: cell-based, mouse; details: 5 μM
Method: (A) Flow cytometry of IL-17A-producing CD4^+ T cells. Splenic T cells were co-treated with verteporfin (C1) (1 or 5 μM) during Th17 differentiation in vitro. (B) Flow cytometry of IL-17A-producing CD4^+ T cells. Murine in vitro differentiated Th17 cells were stimulated with PMA plus ionomycin and co-treated with verteporfin (C1) (1 or 5 μM) for 30 min. (C) Flow cytometry of Foxp3-producing […] T cells. Splenic T cells were co-treated with verteporfin (C1) (5 μM) during Treg differentiation in vitro. (D) Flow cytometry of Foxp3-producing CD4^+ T cells, which were differentiated from CD4^+ T cells of wild-type or Lck-GLK transgenic mice.

T1 sequence (Q9Y4K4 20-277 limits assumed, species assumed): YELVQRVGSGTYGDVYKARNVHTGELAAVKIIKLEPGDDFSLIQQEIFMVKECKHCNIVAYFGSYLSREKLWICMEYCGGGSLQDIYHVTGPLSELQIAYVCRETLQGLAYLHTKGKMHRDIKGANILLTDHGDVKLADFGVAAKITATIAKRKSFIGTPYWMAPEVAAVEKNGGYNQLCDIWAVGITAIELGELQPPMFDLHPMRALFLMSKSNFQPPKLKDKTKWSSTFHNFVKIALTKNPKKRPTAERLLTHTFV
T2 sequence (Q92918 17-274 limits assumed, species assumed): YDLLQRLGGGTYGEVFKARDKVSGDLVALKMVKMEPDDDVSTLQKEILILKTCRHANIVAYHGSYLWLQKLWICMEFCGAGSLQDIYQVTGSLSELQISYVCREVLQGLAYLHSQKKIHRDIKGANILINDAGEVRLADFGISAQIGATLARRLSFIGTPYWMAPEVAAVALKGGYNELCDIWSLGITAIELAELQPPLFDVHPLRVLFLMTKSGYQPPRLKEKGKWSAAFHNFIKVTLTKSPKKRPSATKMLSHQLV

C=Cc1c(C)c2cc3nc(cc4[nH]c(cc5nc(cc1[nH]2)C(C)=C5CCC(=O)O)c(CCC(=O)OC)c4C)[C@@]1(C)C3=CC=C(C(=O)OC)[C@H]1C(=O)OC [C1, verteporfin]
serum IL-17A levels in CIA (CIA in wild-type mice; day 28): inhibited
disease severity (clinical score) in CIA (CIA in wild-type mice; mouse, in vivo): inhibited
IC50 (KHS (MAP4K5)): 43.9 nM
IC50 (HPK1 (MAP4K1)): 7.91 nM
in vitro Treg (Foxp3-expressing CD4+ T cell) differentiation [1]: enhanced

CCCCC(CC)CNC(=N)NC(=N)NCCCCCCNC(=N)NC(=N)NCC(CC)CCCC (stereo not shown) [C2, alexidine dihydrochloride]
IC50 (KHS (MAP4K5)): 18.3 nM
IC50 (HPK1 (MAP4K1)): 6.14 nM
